Results taken from ChEMBL document CHEMBL1151273, “Cytotoxic furostanol saponins and a megastigmane glucoside from tribulus parvispinus” (J Nat Prod, 2005).
The source made the active and inactive calls. No cut-off for these calls is given here.

Key:
MCF7 = assay: Cytotoxicity against human MCF7 cells after 48 hrs by acid phosphatase method; assay type: functional, cell-based; details: MCF7, 48 h
U-937 [1] = assay: Cytotoxicity against human U937 cells after 48 hrs by WST1 test; assay type: functional, cell-based; details: U-937, 48 h
HepG2 = assay: Cytotoxicity against human HepG2 cells after 48 hrs by acid phosphatase method; assay type: functional, cell-based; details: HepG2, 48 h
U-937 [2] = assay: Induction of apoptosis in human U937 cells assessed as hypodiploid region at IC50 measured by propidium iodide incorporation by flow cytometry; assay type: functional
U-937 [3] = assay: Induction of apoptosis in human U937 cells assessed as total LDH activity at IC50 by spectrophotometric method; assay type: functional
U-937 [4] = assay: Cytotoxicity against human U937 cells assessed as reduction of proliferation at 0.5 uM after 24 hrs; assay type: functional, cell-based
U-937 [5] = assay: Cytotoxicity against human U937 cells assessed as reduction of proliferation at 0.1 uM after 48 hrs; assay type: functional, cell-based
U-937 [6] = assay: Cytotoxicity against human U937 cells assessed as reduction of proliferation at 0.1 uM after 24 hrs; assay type: functional, cell-based

Structure (SMILES) | IC50 (MCF7) [µM] | IC50 (U-937 [1]) [µM] | IC50 (HepG2) [µM] | Activity (U-937 [2]) [%] | Activity (U-937 [3]) [%] | Activity (U-937 [4]) | Activity (U-937 [5]) | Activity (U-937 [6])
CC1=CC(=O)CC(C)(C)[C@@]1(O)/C=C/C(O)CO[C@@H]1O[C@H](CO)[C@@H](O)[C@H](O)[C@H]1O (stereo not given in full) [PARVISPINOSIDE C] | 80 | 15 | > 100 |  |  |  |  | 
Oc1ccc(/C=C/c2cc(O)cc(O)c2)cc1 [RESVERATROL] | 100 | 17 | 50 |  |  |  |  | 
CO[C@]1(CC[C@@H](C)CO[C@@H]2O[C@H](CO)[C@@H](O)[C@H](O)[C@H]2O)O[C@H]2C[C@H]3[C@@H]4CC[C@H]5C[C@@H](O[C@@H]6O[C@H](CO)[C@H](O[C@@H]7O[C@H](CO)[C@@H](O)[C@H](O[C@@H]8OC[C@@H](O)[C@H](O)[C@H]8O)[C@H]7O[C@@H]7O[C@H](CO)[C@H](O)[C@H](O)[C@H]7O)[C@H](O)[C@H]6O)CC[C@]5(C)[C@H]4CC[C@]3(C)[C@H]2[C@@H]1C [22-O-METHYLPARVISPINOSIDE B] | 40 | 2 | 30 | 3 | 50 |  |  | 
C[C@H](CC[C@@]1(O)O[C@H]2C[C@H]3[C@@H]4CC[C@H]5C[C@@H](O[C@@H]6O[C@H](CO)[C@H](O[C@@H]7O[C@H](CO)[C@@H](O)[C@H](O[C@@H]8OC[C@@H](O)[C@H](O)[C@H]8O)[C@H]7O[C@@H]7O[C@H](CO)[C@H](O)[C@H](O)[C@H]7O)[C@H](O)[C@H]6O)CC[C@]5(C)[C@H]4CC[C@]3(C)[C@H]2[C@@H]1C)CO[C@@H]1O[C@H](CO)[C@@H](O)[C@H](O)[C@H]1O [PARVISPINOSIDE B] | 94 | 0.5 | > 100 | 26 | 27 | Active | Active | 
C[C@@H]1CC[C@@]2(OC1)O[C@H]1C[C@H]3[C@@H]4CC[C@H]5C[C@@H](O[C@@H]6O[C@H](CO)[C@H](O[C@@H]7O[C@H](CO)[C@@H](O)[C@H](O[C@@H]8OC[C@@H](O)[C@H](O)[C@H]8O)[C@H]7O[C@@H]7O[C@H](CO)[C@H](O)[C@H](O)[C@H]7O)[C@H](O)[C@H]6O)CC[C@]5(C)[C@H]4CC[C@]3(C)[C@H]1[C@@H]2C [GITONIN] | 3 | 0.1 | 3 | 20 | 25 |  | Active | Active
C[C@H](CC[C@@]1(O)O[C@H]2C[C@H]3[C@@H]4CC[C@H]5C[C@@H](O[C@@H]6O[C@H](CO)[C@H](O[C@@H]7O[C@H](CO)[C@@H](O)[C@H](O[C@@H]8OC[C@@H](O)[C@H](O)[C@H]8O)[C@H]7O[C@@H]7O[C@H](CO)[C@H](O)[C@H](O)[C@H]7O)[C@H](O)[C@H]6O)[C@H](O)C[C@]5(C)[C@H]4CC[C@]3(C)[C@H]2[C@@H]1C)CO[C@@H]1O[C@H](CO)[C@@H](O)[C@H](O)[C@H]1O [PARVISPINOSIDE A] | > 100 | 30 | > 100 | 32 | 28 |  |  | 
CO[C@]1(CC[C@@H](C)CO[C@@H]2O[C@H](CO)[C@@H](O)[C@H](O)[C@H]2O)O[C@H]2C[C@H]3[C@@H]4CC[C@H]5C[C@@H](O[C@@H]6O[C@H](CO)[C@H](O[C@@H]7O[C@H](CO)[C@@H](O)[C@H](O[C@@H]8OC[C@@H](O)[C@H](O)[C@H]8O)[C@H]7O[C@@H]7O[C@H](CO)[C@H](O)[C@H](O)[C@H]7O)[C@H](O)[C@H]6O)[C@H](O)C[C@]5(C)[C@H]4CC[C@]3(C)[C@H]2[C@@H]1C [22-O-METHYLPARVISPINOSIDE A] | 50 | 1 | 30 | 9 | 38 |  |  | 
